Read-outs that look alike come from different tables or passages of the source.
System: Bacillus coagulans MXL-9
Settings: for fermentation time: control consumed xylose within 14 hours; for Ferment Time / Acetic Acid Produced / Ethanol Produced / Formic Acid Produced / Lactic Acid Prod. Rate / Lactic Acid Produced / Lactic Acid Yield / Total Products Yield / Xylose Consumed: pH 6.5, 50° C.
[1] = 30 g/L inhibitor, 20 g/L xylose
[2] = inhibitor conc. 10 g/L, 20 g/L xylose
[3] = inhibitor conc. 20 g/L, 20 g/L xylose
[4] = inhibitor conc. 30 g/L, 20 g/L xylose

| SMILES | Ferment Time [2] | Acetic Acid Produced (inhibitor conc. 10 g/L) | Ethanol Produced (inhibitor conc. 10 g/L) | Formic Acid Produced (inhibitor conc. 10 g/L) | Lactic Acid Prod. Rate (inhibitor conc. 10 g/L) | Lactic Acid Produced (inhibitor conc. 10 g/L) | Lactic Acid Yield (inhibitor conc. 10 g/L) | Total Products Yield (inhibitor conc. 10 g/L) | Xylose Consumed (inhibitor conc. 10 g/L) | Ferment Time [3] | Acetic Acid Produced (inhibitor conc. 20 g/L) | Ethanol Produced (inhibitor conc. 20 g/L) | Formic Acid Produced (inhibitor conc. 20 g/L) | Lactic Acid Prod. Rate (inhibitor conc. 20 g/L) | Lactic Acid Produced (inhibitor conc. 20 g/L) | Lactic Acid Yield (inhibitor conc. 20 g/L) | Total Products Yield (inhibitor conc. 20 g/L) | Xylose Consumed (inhibitor conc. 20 g/L) | Ferment Time [4] | Acetic Acid Produced (inhibitor conc. 30 g/L) | further results |
| --- | --- | --- | --- | --- | --- | --- | --- | --- | --- | --- | --- | --- | --- | --- | --- | --- | --- | --- | --- | --- | --- |
| CC(=O)O [HAc, acetic acid] | 17 h | 0.0 g/L | 1.0 g/L | 1.1 g/L | 1.0 g/L/h | 17.3 g/L | 81.0% | 90.7% | 21.4 g/L | 22 h | 0.0 g/L | 0.8 g/L | 0.5 g/L | 0.9 g/L/h | 19.3 g/L | 93.6% | 99.8% | 20.6 g/L | 60 h | 0.0 g/L | fermentation time (10 g/L inhibitor): complete in under a day; fermentation time (20 g/L inhibitor): complete in under a day; lag phase [1]: longer lag phase; overall lactic acid yield [1]: not diminished; fermentation time (30 g/L inhibitor): two days; Ethanol Produced (inhibitor conc. 30 g/L): 0.4 g/L; Formic Acid Produced (inhibitor conc. 30 g/L): 0.4 g/L; Lactic Acid Prod. Rate (inhibitor conc. 30 g/L): 0.3 g/L/h; Lactic Acid Produced (inhibitor conc. 30 g/L): 18.5 g/L; Lactic Acid Yield (inhibitor conc. 30 g/L): 91.4%; Total Products Yield (inhibitor conc. 30 g/L): 95.3%; Xylose Consumed (inhibitor conc. 30 g/L): 20.2 g/L |
| [Na] [Na, sodium] | 32 h | 0.8 g/L | 0.0 g/L | 1.3 g/L | 0.6 g/L/h | 18.8 g/L | 83.1% | 92.4% | 22.4 g/L | 62 h | 0.7 g/L | 0.0 g/L | 1.3 g/L | 0.3 g/L/h | 19.6 g/L | 85.9% | 94.5% | 22.7 g/L | 150 h | 0.0 g/L | lag time (20 g/L inhibitor, xylose): increased the lag time; overall product yield (20 g/L inhibitor, xylose): did not affect overall product yield; inhibition of xylose fermentation (30 g/L inhibitor): completely inhibitory; cell growth (30 g/L inhibitor, over the course of 6 days): no cell growth occurred; Ethanol Produced (inhibitor conc. 30 g/L): 0.0 g/L; Formic Acid Produced (inhibitor conc. 30 g/L): 0.0 g/L; Lactic Acid Prod. Rate (inhibitor conc. 30 g/L): 0.0 g/L/h; Lactic Acid Produced (inhibitor conc. 30 g/L): 0.0 g/L; Lactic Acid Yield (inhibitor conc. 30 g/L): 2.6%; Total Products Yield (inhibitor conc. 30 g/L): 2.6%; Xylose Consumed (inhibitor conc. 30 g/L): 0.8 g/L |

Source: patent US20110183389A1, “PRODUCTION OF LACTIC ACID FROM HEMICELLULOSE EXTRACTS” (priority 2009, published 2011)
